Laboratory results: ChEMBL document CHEMBL1201862, “PubChem BioAssay data set” (2004)
Where a name gives a salt, the structure may show the parent alone.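 How tested: cells in 96-well plates exposed to compound for 48 hours at five concentrations. The concentration for 50% growth inhibition is given as GI50.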 Active and inactive are the calls of the source. Rule as the data show it: active = GI50 up to about 1.1 µM and inactive = higher.

What was measured:
Assay in all cases: NCI anticancer screen, dose series, 48 h
HL-60 = test system: HL-60
HCT-116 = test system: HCT-116
COLO 205 = test system: COLO 205
SF-539 = test system: SF-539
RPMI-8226 = test system: RPMI-8226
NCI-H23 = test system: NCI-H23
UACC-62 = test system: UACC-62
OVCAR-8 = test system: OVCAR-8
EKVX = test system: EKVX
NCI-H460 = test system: NCI-H460
HCT-15 = test system: HCT-15
SNB-19 = test system: SNB-19
UACC-257 = test system: UACC-257
MDA-MB-231 = test system: MDA-MB-231
HOP-62 = test system: HOP-62
PC-3 = test system: PC-3
OVCAR-4 = test system: OVCAR-4
HT-29 = test system: HT-29
Malme-3M = test system: Malme-3M
A549 = test system: A549

Row | SMILES | GI50 (HL-60) | GI50 (HCT-116) | GI50 (COLO 205) | GI50 (SF-539) | GI50 (RPMI-8226) | GI50 (NCI-H23) | GI50 (UACC-62) | GI50 (OVCAR-8) | GI50 (EKVX) | GI50 (NCI-H460) | GI50 (HCT-15) [µM] | GI50 (SNB-19) | GI50 (UACC-257) | GI50 (MDA-MB-231) | GI50 (HOP-62) | GI50 (PC-3) | GI50 (OVCAR-4) | GI50 (HT-29) | GI50 (Malme-3M) | GI50 (A549)
1 | c1ccc(COC2C3COC(O3)C(OCc3ccccc3)C2OCc2ccccc2)cc1 (configuration not stated) | 13.2 µM (inactive) | 33.9 µM (inactive) | 41 µM (inactive) | > 100 µM (inactive) | 12.2 µM (inactive) | 77.3 µM (inactive) | > 100 µM (inactive) | 60.7 µM (inactive) | 38.7 µM (inactive) | 22 µM (inactive) | 34 | 27.3 µM (inactive) | 71.1 µM (inactive) | > 100 µM (inactive) | 71.3 µM (inactive) | 35.2 µM (inactive) | 49.1 µM (inactive) | – | – | –
2 | CN(C)CC1CCCCCCCCCC(CN(C)C)C1=O (configuration not stated) | 15.1 µM (inactive) | > 26.7 µM (inactive) | > 38.1 µM (inactive) | > 27.7 µM (inactive) | > 22 µM (inactive) | > 27.6 µM (inactive) | 22 µM (inactive) | > 32.3 µM (inactive) | > 39.9 µM (inactive) | > 36.8 µM (inactive) | > 22.3 | > 39.7 µM (inactive) | 23.1 µM (inactive) | 17.3 µM (inactive) | > 44 µM (inactive) | 4.41 µM (inactive) | – | 14.3 µM (inactive) | > 35.2 µM (inactive) | > 34.8 µM (inactive)
3 | NNc1[nH]c(=S)[nH]c1C(N)=O | > 100 µM (inactive) | > 100 µM (inactive) | > 100 µM (inactive) | > 100 µM (inactive) | > 100 µM (inactive) | > 10 µM (inactive) | > 100 µM (inactive) | > 100 µM (inactive) | > 100 µM (inactive) | > 100 µM (inactive) | > 100 | – | > 100 µM (inactive) | > 100 µM (inactive) | > 100 µM (inactive) | > 100 µM (inactive) | > 100 µM (inactive) | > 100 µM (inactive) | > 100 µM (inactive) | > 100 µM (inactive)
4 | Cn1c(=O)c(-c2ccccc2)c(O)c2ccccc21 | > 100 µM (inactive) | > 100 µM (inactive) | > 100 µM (inactive) | > 100 µM (inactive) | > 100 µM (inactive) | > 100 µM (inactive) | – | > 100 µM (inactive) | > 100 µM (inactive) | > 100 µM (inactive) | > 100 | > 100 µM (inactive) | > 100 µM (inactive) | > 100 µM (inactive) | > 100 µM (inactive) | > 100 µM (inactive) | > 100 µM (inactive) | > 100 µM (inactive) | > 100 µM (inactive) | > 100 µM (inactive)
5 | CC[C@@]1(O)C(=O)OCc2c1cc1n(c2=O)Cc2cc3c(CN(C)C)c(O)ccc3nc2-1 [TOPOTECAN HYDROCHLORIDE] | 0.0268 µM (active) | 0.0408 µM (active) | 0.293 µM (active) | 0.0168 µM (active) | 0.276 µM (active) | 0.0217 µM (active) | – | – | 0.333 µM (active) | 0.0163 µM (active) | 0.395 | 0.0179 µM (active) | 0.0834 µM (active) | 2.25 µM (inactive) | 0.0125 µM (active) | 0.0771 µM (active) | 0.412 µM (active) | 0.132 µM (active) | 0.188 µM (active) | 0.0475 µM (active)
6 | Cc1cc2ncn(C3CCCO3)c2cc1C (configuration not stated) | > 100 µM (inactive) | > 100 µM (inactive) | > 100 µM (inactive) | > 100 µM (inactive) | > 100 µM (inactive) | > 100 µM (inactive) | > 100 µM (inactive) | > 100 µM (inactive) | > 100 µM (inactive) | – | > 100 | > 100 µM (inactive) | > 100 µM (inactive) | > 100 µM (inactive) | > 100 µM (inactive) | > 100 µM (inactive) | > 100 µM (inactive) | > 100 µM (inactive) | > 100 µM (inactive) | > 100 µM (inactive)
7 | COC(=O)C1(NC(=O)C(Cc2ccccc2)N(C(=O)OC(C)(C)C)C(=O)OC(C)(C)C)CCCC1 (configuration not stated) | 22.1 µM (inactive) | 55.7 µM (inactive) | > 100 µM (inactive) | > 100 µM (inactive) | 20 µM (inactive) | 30.5 µM (inactive) | 20.1 µM (inactive) | 43.9 µM (inactive) | 66.2 µM (inactive) | 46.1 µM (inactive) | 66.4 | > 100 µM (inactive) | – | 80.9 µM (inactive) | 77.8 µM (inactive) | 31 µM (inactive) | – | – | – | 37.9 µM (inactive)
8 | Cn1c(=O)oc2cc(C(=S)N3CCCCC3)ccc21 | > 100 µM (inactive) | > 100 µM (inactive) | > 100 µM (inactive) | > 100 µM (inactive) | > 100 µM (inactive) | > 100 µM (inactive) | > 100 µM (inactive) | > 100 µM (inactive) | > 100 µM (inactive) | > 100 µM (inactive) | > 100 | > 100 µM (inactive) | > 100 µM (inactive) | > 100 µM (inactive) | > 100 µM (inactive) | > 100 µM (inactive) | – | > 100 µM (inactive) | > 100 µM (inactive) | –
9 | COC(=O)Nc1nc(=O)c2cc(OC)c(OC)cc2[nH]1 | 7.46 µM (inactive) | 5.2 µM (inactive) | 4.4 µM (inactive) | 24.2 µM (inactive) | – | 50 µM (inactive) | 6.56 µM (inactive) | 47.6 µM (inactive) | > 100 µM (inactive) | 9.33 µM (inactive) | 17.5 | 36.4 µM (inactive) | > 100 µM (inactive) | 81.3 µM (inactive) | 44.6 µM (inactive) | 3.29 µM (inactive) | > 100 µM (inactive) | 6.68 µM (inactive) | 5.31 µM (inactive) | > 100 µM (inactive)
10 | C/C(Cc1ccc2c(c1)OCO2)=N\N=c1\sc2ccccc2n1C | > 100 µM (inactive) | 48.5 µM (inactive) | > 100 µM (inactive) | > 100 µM (inactive) | 65.9 µM (inactive) | 78 µM (inactive) | > 100 µM (inactive) | > 100 µM (inactive) | 24.8 µM (inactive) | – | 68.4 | > 100 µM (inactive) | > 100 µM (inactive) | > 100 µM (inactive) | > 100 µM (inactive) | 97.1 µM (inactive) | > 100 µM (inactive) | 42.8 µM (inactive) | > 100 µM (inactive) | > 100 µM (inactive)
11 | Cc1cn(C2CC(n3cc(Cn4cc(I)c(=O)[nH]c4=O)nn3)C(CO)O2)c(=O)[nH]c1=O (configuration not stated) | 0.0119 µM (active) | > 100 µM (inactive) | > 100 µM (inactive) | > 100 µM (inactive) | > 100 µM (inactive) | > 100 µM (inactive) | > 100 µM (inactive) | > 100 µM (inactive) | – | – | > 100 | > 100 µM (inactive) | > 100 µM (inactive) | > 100 µM (inactive) | > 100 µM (inactive) | > 100 µM (inactive) | > 100 µM (inactive) | – | – | > 100 µM (inactive)
12 | C[Si](C)(C)C1=C2C(=O)c3ccccc3C(=O)C2=C([Si](C)(C)C)[C@@H]2CCCC[C@H]12 | > 100 µM (inactive) | > 100 µM (inactive) | > 100 µM (inactive) | > 100 µM (inactive) | > 100 µM (inactive) | > 100 µM (inactive) | > 100 µM (inactive) | – | > 100 µM (inactive) | > 100 µM (inactive) | > 100 | > 100 µM (inactive) | > 100 µM (inactive) | > 100 µM (inactive) | – | > 100 µM (inactive) | 95.3 µM (inactive) | – | > 100 µM (inactive) | > 100 µM (inactive)
13 | CCOP(=O)(OCC)C(c1ccc(F)cc1)N(C(=O)NC(F)(F)F)c1ccc(F)cc1 (configuration not stated) | > 100 µM (inactive) | > 100 µM (inactive) | > 100 µM (inactive) | > 100 µM (inactive) | > 100 µM (inactive) | > 100 µM (inactive) | – | > 100 µM (inactive) | > 100 µM (inactive) | > 100 µM (inactive) | > 100 | > 100 µM (inactive) | > 100 µM (inactive) | > 100 µM (inactive) | > 100 µM (inactive) | > 100 µM (inactive) | – | > 100 µM (inactive) | > 100 µM (inactive) | > 100 µM (inactive)
14 | COc1cc(/C=C/C(=O)OCC23CC[C@@]4(C(=O)O)CCC(C)[C@H](C)C4C2=CCC2[C@@]4(C)CC[C@H](O)C(C)(C)C4CC[C@]23C)ccc1O (some centres not stated) | 23.4 µM (inactive) | 17.5 µM (inactive) | > 10 µM (inactive) | 14.7 µM (inactive) | – | 3.89 µM (inactive) | 19.6 µM (inactive) | 15.9 µM (inactive) | 15.5 µM (inactive) | 11.4 µM (inactive) | 21.6 | 31.2 µM (inactive) | 17.7 µM (inactive) | 46.3 µM (inactive) | 13.4 µM (inactive) | 16.3 µM (inactive) | 17.5 µM (inactive) | 20.4 µM (inactive) | 11.9 µM (inactive) | 7.76 µM (inactive)
15 | COc1ccc(N2C(=O)C3c4[nH]c5ccccc5c4C4CCCCCCCC4C3C2=O)cc1 (configuration not stated) | > 10 µM (inactive) | 1.7 µM (inactive) | > 10 µM (inactive) | 6.95 µM (inactive) | > 10 µM (inactive) | > 10 µM (inactive) | > 10 µM (inactive) | > 10 µM (inactive) | > 10 µM (inactive) | > 10 µM (inactive) | > 10 | > 10 µM (inactive) | – | > 10 µM (inactive) | > 10 µM (inactive) | > 10 µM (inactive) | > 10 µM (inactive) | > 10 µM (inactive) | > 10 µM (inactive) | > 10 µM (inactive)
